Laboratory results reported in the supplement of paper PMC10627819.

Assays:
[1] = system: S. pneumoniae D39V; assay: Bliss interaction score (quartile over a dose matrix) (fitness difference); higher = more antagonism (negative = synergy)
How it was run: (§1)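 Growth was read as OD595 when cultures entered stationary phase, and each value was divided by the plate's robust no-drug mean and capped at 1. This normalised ratio is the fitness value, and fitness for each single drug came from the combination data. The Bliss score subtracts the expected fitness, taken as the product, from the observed fitness and is given as quartiles across technical, biological and donor/recipient replicates.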

[2] = system: S. aureus Newman; assay: as above
How it was run: as §1

[3] = system: B. subtilis 168; assay: as above
How it was run: as §1

[4] = system: S. aureus DSM 20231; assay: as above
How it was run: as §1

[5] = system: S. pneumoniae D39V; assay: fitness (endpoint OD595 vs no drug) (fraction); higher = more growth
How it was run: (§2)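 Each well of a 384-well plate received 30 µl of culture at OD595 0.01, or 55 µl for S. pneumoniae. TSB, LB Lennox or CY served as media at 37 °C. OD595 was taken every 30 min for 14 h and corrected by subtracting the first reading. Fitness is the optical density at stationary-phase entry divided by the robust mean of no-drug controls, capped at 1.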

[6] = system: S. aureus Newman; assay: as above
How it was run: as §2
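For Bliss interaction score (quartile over a dose matrix) in this document: first quartile when negative (synergy) and third quartile when positive (antagonism).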

O=C(O)c1cn(C2CC2)c2cc(N3CCNCC3)c(F)cc2c1=O [Ciprofloxacin] + C/C(=C\C(=O)OCCCCCCCCC(=O)O)C[C@@H]1OC[C@H](C[C@@H]2O[C@H]2[C@@H](C)[C@H](C)O)[C@@H](O)[C@H]1O [Pseudomonic acid]
Settings | Bliss interaction score
[1] | 0.0559
[2] | 0.0616
[3] | 0.0413
[4] | 0.0149

fitness, [5]
Settings | first compound 0.125 µg/mL | first compound 0.25 µg/mL | first compound 0.5 µg/mL
partner 0.03 µg/mL | 0.92 | 0.877 | –
partner 0.06 µg/mL | 0.828 | 0.742 | –
partner 0.12 µg/mL | 0.444 | 0.551 | 0.393

fitness, [6], one replicate
Settings | first compound 0.078 µg/mL | first compound 0.156 µg/mL | first compound 0.312 µg/mL
partner 0.0313 µg/mL | 0.0919 | 0.0675 | 0.0586
partner 0.0625 µg/mL | 0.052 | 0.0404 | 0.0324
partner 0.125 µg/mL | 0.0642 | 0.0505 | 0.0607

O=C(O)c1cn(C2CC2)c2cc(N3CCNCC3)c(F)cc2c1=O [Ciprofloxacin] + CCCCCCCCCC(=O)N[C@@H]1[C@H]([C@@H]([C@H](O[C@H]1OC2=C3C=C4C=C2OC5=C(C=C(C=C5)[C@H]([C@H]6C(=O)N[C@@H](C7=C(C(=CC(=C7)O)OC8[C@H]([C@H]([C@@H]([C@H](O8)CO)O)O)O)C9=C(C=CC(=C9)[C@H](C(=O)N6)NC(=O)[C@@H]4NC(=O)[C@@H]1C2=CC(=CC(=C2)OC2=C(C=CC(=C2)[C@H](C(=O)N[C@H](CC2=CC(=C(O3)C=C2)Cl)C(=O)N1)N)O)O)O)C(=O)O)O[C@H]1[C@@H]([C@H]([C@@H]([C@H](O1)CO)O)O)NC(=O)C)Cl)CO)O)O [Teicoplanin]
main component drawn
Settings | Bliss interaction score
[1] | -0.063
[2] | -0.0935
[3] | -0.1
[4] | 0.0835

fitness, [6], main component drawn
Settings | first compound 0.0375 µg/mL | first compound 0.075 µg/mL | first compound 0.15 µg/mL
partner 0.1562 µg/mL | 0.681 | 0.629 | 0.0421
partner 0.3125 µg/mL | 0.713 | 0.626 | 0.0116
partner 0.625 µg/mL | 0.608 | 0.534 | 0.0117

fitness, [6], one replicate, main component drawn
Settings | first compound 0.078 µg/mL | first compound 0.156 µg/mL | first compound 0.312 µg/mL
partner 0.62 µg/mL | 0.535 | 0.0341 | 0.036
partner 1.24 µg/mL | 0.372 | 0.0368 | 0.0337
partner 2.48 µg/mL | 0.0816 | 0.0702 | 0.0565

O=C(O)c1cn(C2CC2)c2cc(N3CCNCC3)c(F)cc2c1=O [Ciprofloxacin] + CN[C@H](CC(C)C)C(=O)N[C@H]1C(=O)N[C@@H](CC(N)=O)C(=O)N[C@H]2C(=O)N[C@H]3C(=O)N[C@H](C(=O)N[C@H](C(=O)O)c4cc(O)cc(O)c4-c4cc3ccc4O)[C@H](O)c3ccc(c(Cl)c3)Oc3cc2cc(c3O[C@@H]2O[C@H](CO)[C@@H](O)[C@H](O)[C@H]2O[C@H]2C[C@](C)(N)[C@H](O)[C@H](C)O2)Oc2ccc(cc2Cl)[C@H]1O [Vancomycin]
Settings | Bliss interaction score
[1] | -0.106
[2] | -0.0715
[3] | -0.0465
[4] | 0.0479

Settings | fitness
[5], first compound 0.125 µg/mL, partner 0.03125 µg/mL | 0.943
[5], first compound 0.125 µg/mL, partner 0.0625 µg/mL | 0.881
[5], first compound 0.125 µg/mL, partner 0.125 µg/mL | 0.885
[5], first compound 0.125 µg/mL, partner 0.25 µg/mL | 0.0814
[5], first compound 0.125 µg/mL, partner 0.5 µg/mL | 0.034
[5], first compound 0.25 µg/mL, partner 0.03125 µg/mL | 0.845
[5], first compound 0.25 µg/mL, partner 0.0625 µg/mL | 0.826
[5], first compound 0.25 µg/mL, partner 0.125 µg/mL | 0.82
[5], first compound 0.5 µg/mL, partner 0.03125 µg/mL | 0.58
[5], first compound 0.5 µg/mL, partner 0.0625 µg/mL | 0.585
[5], first compound 0.5 µg/mL, partner 0.25 µg/mL | 0.158
[5], first compound 0.5 µg/mL, partner 0.5 µg/mL | 0.0552
[6], first compound 0.0375 µg/mL, partner 0.1875 µg/mL | 0.75
[6], first compound 0.0375 µg/mL, partner 0.375 µg/mL | 0.77
[6], first compound 0.0375 µg/mL, partner 0.75 µg/mL | 0.725
[6], first compound 0.075 µg/mL, partner 0.1875 µg/mL | 0.718
[6], first compound 0.075 µg/mL, partner 0.375 µg/mL | 0.682
[6], first compound 0.075 µg/mL, partner 0.75 µg/mL | 0.663
[6], first compound 0.15 µg/mL, partner 0.1875 µg/mL | 0.07
[6], first compound 0.15 µg/mL, partner 0.375 µg/mL | 0.0567
[6], first compound 0.15 µg/mL, partner 0.75 µg/mL | 0.0797

[5], first compound 0.25 µg/mL, one replicate
Settings | fitness
partner 0.25 µg/mL | 0.0819
partner 0.5 µg/mL | 0.0016
